From patent US12568967B2, “Compositions comprising pyridine carboxylate herbicides with synthetic auxin herbicides or auxin transport inhibitors” (priority 2018, dated 2026)
“And” between values parts separate entries of the source, which are not always exact repeats. Identical values can stand only once. Like-named read-outs stand apart in the source and are kept apart here.

Experiments:
[1] = tested on: Veronica hederifolia (ivyleaf speedwell, VERHE); experiment: Greenhouse postemergence trial VERHE; assay type: in vivo; settings: VERHE; for % visual injury, Obs: applied alone
[2] = tested on: Triticum aestivum (spring wheat, TRZAS); assay type: in vivo
[3] = tested on: Hordeum vulgare (winter barley, HORVW); experiment: Greenhouse postemergence crop phytotoxicity HORVW; assay type: in vivo; settings: for % visual injury Obs / visual injury, Obs / % visual injury, Obs: HORVW; for % visual injury, Obs: applied alone; for % visual injury (crop phytotoxicity): c1-3 Compound A 7.5/10/15
Method: (§1) Seeds of the desired test plant species were planted in a 90:10% v/v (volume/volume) mixture of PRO-MIX® BX (Premier Tech Horticulture, Quakertown, PA, USA) and PROFILE® GREENS GRADE™ (Profile Products LLC, Buffalo Grove, IL, USA) planting mixture, which typically has a pH of 5.2 to 6.2 and an organic matter content of at least 50 percent, in plastic pots with a surface area of 103.2 square centimeters (cm^2). […] The plants were grown for 7-36 days (d) in a greenhouse with an approximate 14-hour (h) photo-period which was maintained at about 23° C. during the day and 22° C. during the night. Nutrients and water were added on a regular basis and supplemental lighting was provided with overhead metal halide 1000-Watt lamps as necessary. The plants were employed for testing when they reached the second or third true leaf stage.
(§2) Emulsifiable concentrates of each of each pyridine carboxylate herbicide (Compound A or Compound B) were prepared at 100 grams acid equivalent per liter (g ae/L). The emulsifiable concentrates also included a safener, cloquintocet-mexyl, at 120 grams active ingredient per liter (g ai/L), unless otherwise noted below. An aliquot of each emulsifiable concentrate was placed in a 25 mL glass vial and diluted with an aqueous mixture of 1.25% (v/v) ACTIROB® B esterified rapeseed oil (Bayer Crop Science, Research Triangle Park, NC, USA) or MSO® Concentrate with LECI-TECH® methylated soybean oil (Loveland Products, Loveland, CO, USA) to obtain concentrated stock solutions at the highest application rate for each herbicide, based upon a 12 milliliter (mL) application volume at a rate of 187 liters per hectare (L/ha). The concentrated stock solutions were further diluted with an aqueous mixture of 1.25% v/v ACTIROB® B or MSO® Concentrate with LECI-TECH® to obtain stock solutions at reduced application rates for each herbicide. Spray solutions of the herbicide combinations (Compound A or Compound B plus synthetic auxin herbicide or auxin transport inhibitor) were prepared by adding weighed amounts or aliquots of the synthetic auxin herbicide or auxin transport inhibitor to the stock solutions of Compound A or Compound B to form 12-mL spray solutions in two-way combinations.
(§3) The spray solutions were applied to the plant material with an overhead Mandel track sprayer equipped with 8002E nozzles calibrated to deliver 187 L/ha over an application area of 0.503 square meters (m^2) at a spray height of 18 inches (43 centimeters (cm)) above the average plant canopy. Control plants were sprayed in the same manner with the solvent blank. All pyridine carboxylate herbicide (component a) application rates are given as “g ae/ha” and all synthetic auxin herbicide or auxin transport inhibitor (component b) application rates are given as “g ai/ha.”
(§4) The treated plants and control plants were placed in a greenhouse as described above and watered by sub-irrigation to prevent wash-off of the test compounds. After 20-22 d, the condition of the test plants as compared with that of the control plants was determined visually and scored on a scale of 0 to 100 percent where 0 corresponds to no injury and 100 corresponds to complete kill.

[4] = tested on: Leptochloa chinensis (Chinese sprangletop, LEFCH); experiment: Greenhouse postemergence trial LEFCH; assay type: in vivo; settings: Compound A 10 g/ha
Method: as §1
(§5) Emulsifiable concentrates of each of each pyridine carboxylate herbicide (Compound A or Compound B) were prepared at 100 grams acid equivalent per liter (g ae/L). The emulsifiable concentrates also included a safener, cloquintocet-mexyl, at 120 grams active ingredient per liter (g ai/L), unless otherwise noted below. An aliquot of each emulsifiable concentrate was placed in a 25 mL glass vial and diluted with an aqueous mixture of 1.25% (v/v) ACTIROB® B esterified rapeseed oil (Bayer Crop Science, Research Triangle Park, NC, USA) or MSO® Concentrate with LECI-TECH® methylated soybean oil (Loveland Products, Loveland, CO, USA) to obtain concentrated stock solutions at the highest application rate for each herbicide, based upon a 12 milliliter (mL) application volume at a rate of 187 liters per hectare (L/ha). The concentrated stock solutions were further diluted with an aqueous mixture of 1.25% v/v ACTIROB® B or MSO® Concentrate with LECI-TECH® to obtain stock solutions at reduced application rates for each herbicide. Spray solutions of the herbicide combinations (Compound A or Compound B plus synthetic auxin herbicide or auxin transport inhibitor) were prepared by adding weighed amounts or aliquots of the synthetic auxin herbicide or auxin transport inhibitor to the stock solutions of Compound A or Compound B to form 12-mL spray solutions in two-way combinations. […]
as §4

[5] = tested on: Cyperus esculentus (nutsedge, CYPES); experiment: Greenhouse postemergence trial CYPES; assay type: in vivo; settings: Compound A 10 g/ha
Method: as §1, §5, §4

[6] = tested on: Sinapis arvensis (wild mustard, SINAR); experiment: Greenhouse postemergence trial SINAR; assay type: in vivo
Method: The plants were grown for 7-36 days (d) in a greenhouse with an approximate 14-hour (h) photo-period which was maintained at about 23° C. during the day and 22° C. during the night. Nutrients and water were added on a regular basis and supplemental lighting was provided with overhead metal halide 1000-Watt lamps as necessary. The plants were employed for testing when they reached the second or third true leaf stage.
The emulsifiable concentrates also included a safener, cloquintocet-mexyl, at 120 grams active ingredient per liter (g ai/L), unless otherwise noted below.
Control plants were sprayed in the same manner with the solvent blank. All pyridine carboxylate herbicide (component a) application rates are given as “g ae/ha” and all synthetic auxin herbicide or auxin transport inhibitor (component b) application rates are given as “g ai/ha.”
as §4

[7] = tested on: Viola tricolor (wild pansy, VIOTR); experiment: Greenhouse postemergence trial VIOTR;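 further: greenhouse plants sprayed at second to third true leaf stage, injury rated visually after 20-22 d against solvent-blank sprayed controls, 0 meaning no injury and 100 complete kill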
[8] = tested on: Matricaria chamomilla (wild chamomile, MATCH); experiment: Greenhouse postemergence trial MATCH; assay type: in vivo;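 further: greenhouse plants sprayed at second to third true leaf stage, injury rated by eye 20-22 d later versus solvent-blank controls on 0–100 scale, 0 no injury, 100 complete kill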
[9] = tested on: Avena fatua (wild oat, AVEFA); experiment: Greenhouse postemergence trial AVEFA; assay type: in vivo; settings: Compound A 10 g/ha
Method: as §1, §5, §4

[10] = tested on: Oryza sativa (common rice, ORYSA); experiment: Greenhouse postemergence trial ORYSA; assay type: in vivo; settings: Compound A 10 g/ha
Method: as §1
Emulsifiable concentrates of each of each pyridine carboxylate herbicide (Compound A or Compound B) were prepared at 100 grams acid equivalent per liter (g ae/L). […]
as §4

[11] = tested on: Stellaria media (chickweed, STEME); experiment: Greenhouse postemergence trial STEME; assay type: in vivo; settings: for % visual injury Obs: alone
[12] = tested on: Echinochloa crus-galli (barnyard grass, ECHCG); experiment: Greenhouse postemergence trial ECHCG; assay type: in vivo; settings: Compound A 10 g/ha
Method: as §1, §2, §3, §4

[13] = tested on: Chenopodium album L. (common lambsquarters, CHEAL); experiment: Greenhouse postemergence trial CHEAL; assay type: in vivo;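 further: greenhouse plants sprayed at second to third true leaf stage, injury rated by eye after 20-22 d versus solvent-blank sprayed controls, 0 = no injury, 100 = complete kill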
[14] = tested on: Kochia scoparia (kochia, KCHSC); experiment: Greenhouse postemergence trial KCHSC; assay type: in vivo
[15] = Triticum aestivum (spring wheat, TRZAS), in vivo
[16] = Compound A 10 g/ha, without safener
[17] = Viola tricolor, post-emergence, read-out: % visual injury Obs

N#CCOC(=O)c1nc(-c2ccc3cc[nH]c3c2F)c(F)c(N)c1Cl [Compound A, cyanomethyl 4-amino-3-chloro-5-fluoro-6-(7-fluoro-1H-indol-6-yl)pyridine-2-carboxylate]
90% and 88%: % visual injury (Obs) ([6]; SINAR, alone, 10 g/ha) | % visual injury, Obs ([6]; SINAR, applied alone, 10 g/ha)
33% and 30%: % visual injury (Obs) ([8]; MATCH, alone 10 g/ha)
88% and 90%: CHEAL Obs (% visual injury) ([13]; Compound A 10 g/ha)
75% and 70%: % visual injury, Obs ([14]; KCHSC, applied alone, 10 g/ha)
88% and 78%: % visual injury, Obs ([13]; CHEAL, Compound A 10 g/ha)
100% and 88%: % visual injury, Obs ([6]; SINAR, Compound A 10 g/ha)
90% and 78%: % visual injury (Obs) ([13]; CHEAL, alone 10 g/ha)
18%: VIOTR Obs (% visual injury) ([7]; Compound A 10 g/ha)
23%: % visual injury (Obs) ([7]; VIOTR, alone, 10 g/ha)
90%: pest or weed control at […] ([6]; Mutarda arvensis, post-emergence, SINAR, Compound A 7.5 g/ha, read-out: % visual injury Obs) | pest or weed control at 10 g/ha ([6]; Mutarda arvensis, post-emergence, SINAR, Compound A 10 g/ha, read-out: % visual injury Obs) | % visual injury Obs ([6]; SINAR, Compound A 10 g/ha) | visual injury, Obs ([6]; SINAR, Compound A 10 g/ha alone) | % visual injury Obs ([6]; SINAR, alone, 10 g/ha)
88%: STEME Obs (% visual injury) [11, 16] | % visual injury, Obs ([11]; STEME, Compound A 10 g/ha) | CHEAL % visual injury Obs ([13]; Compound A 10 g/ha (Table 42)) | CHEAL % visual injury Obs ([13]; Compound A 10 g/ha (Table 43)) | CHEAL % visual injury Obs ([13]; Compound A 10 g/ha (Table 44)) | KCHSC Obs (% visual injury) [14, 16]
10%: ORYSA Obs (% visual injury) [10]
70%: visual injury, Obs ([11]; STEME, Compound A 10 g/ha alone) | % visual injury Obs ([11]; STEME, 10 g/ha) | % visual injury, Obs ([11]; STEME, applied alone, 10 g/ha) | pest or weed control at 10 g/ha ([11]; Stellaria media, post-emergence, STEME, Compound A 10 g/ha, read-out: % visual injury Obs) | pest or weed control at […] ([14]; Bassia scoparia, post-emergence, KCHSC, Compound A 7.5 g/ha, read-out: % visual injury Obs)
0%: TRZAS Obs (% visual injury) ([2]; Compound A 10 g/ha) | TRZAS % visual injury Obs ([2]; Compound A 10 g/ha (Table 42)) | TRZAS % visual injury Obs ([2]; Compound A 10 g/ha (Table 43)) | TRZAS % visual injury Obs ([2]; Compound A 10 g/ha (Table 44)) | % visual injury Obs ([2]; TRZAS, Compound A 10 g/ha) | % visual injury, Obs ([2]; TRZAS, Compound A 10 g/ha) | visual injury, Obs ([2]; TRZAS, Compound A 10 g/ha alone) | % visual injury Obs ([2]; TRZAS, Compound A 15 g/ha) | visual injury, Obs ([2]; TRZAS, Compound A 15 g/ha alone) | % visual injury (Obs) ([2]; TRZAS, alone 10 g/ha) | % visual injury Obs ([2]; TRZAS, alone 10 g/ha) | % visual injury Obs ([2]; TRZAS, alone, 15 g/ha) | % visual injury, Obs ([2]; TRZAS, applied alone, 10 g/ha) | % visual injury, Obs ([2]; TRZAS, applied alone, 15 g/ha) | % visual injury (crop phytotoxicity) [2, 15] | % visual injury, Obs (crop phytotoxicity) [2, 15] | % visual injury (crop phytotoxicity) ([2]; c1-2 Compound A 7.5/10, c3 Quinclorac 140, c4-5 A 7.5/10 + Quinclorac 140 g/ha) | % visual injury (crop phytotoxicity) ([2]; c1-3 Compound A 7.5/10/15, c4-5 Fluroxypyr-MHE 100/140, c6-8, c9-11 A 7.5/10/15 + Fluroxypyr-MHE 100, 140 g/ha) | % visual injury (crop phytotoxicity) ([2]; c1-3 Compound A 7.5/10/15, c4 Aminopyralid 5, c5-7 A 7.5/10/15 + Aminopyralid 5 g/ha) | % visual injury (crop phytotoxicity) ([2]; c1-3 Compound A 7.5/10/15, c4 Halauxifen-methyl 6, c5-7 A 7.5/10/15 + Halauxifen-methyl 6 g/ha) | % visual injury Obs ([3]; Compound A 10 g/ha) | visual injury, Obs ([3]; Compound A 10 g/ha alone) | % visual injury Obs ([3]; Compound A 15 g/ha) | visual injury, Obs ([3]; Compound A 15 g/ha alone) | % visual injury Obs ([3]; alone, 10 g/ha) | % visual injury Obs ([3]; alone, 15 g/ha) | % visual injury, Obs ([3]; 10 g/ha) | % visual injury, Obs ([3]; 15 g/ha) | % visual injury (crop phytotoxicity) ([3]; c4-5 Fluroxypyr-MHE 100/140, c6-8, c9-11 A 7.5/10/15 + Fluroxypyr-MHE 100, 140 g/ha) | % visual injury (crop phytotoxicity) ([3]; c4-6 Clopyralid 30/60/120, c7-9, c10-12, c13-15 A 7.5/10/15 + Clopyralid 30, 60, 120 g/ha) | % visual injury (crop phytotoxicity) ([3]; c4 Aminopyralid 5, c5-7 A 7.5/10/15 + Aminopyralid 5 g/ha) | % visual injury (crop phytotoxicity) ([3]; c4 Halauxifen-methyl 6, c5-7 A 7.5/10/15 + Halauxifen-methyl 6 g/ha) | LEFCH Obs (% visual injury) ([4]; without safener) | % visual injury, Obs ([4]; LEFCH) | % visual injury, Obs ([5]; CYPES) | CYPES Obs (% visual injury) ([5]; without safener) | % visual injury, Obs ([9]; AVEFA) | AVEFA Obs (% visual injury) ([9]; without safener)
20%: visual injury, Obs ([8]; MATCH, Compound A 10 g/ha alone) | visual injury, Obs ([8]; MATCH, Compound A 15 g/ha alone) | % visual injury Obs ([8]; MATCH, alone 10 g/ha) | % visual injury Obs ([8]; MATCH, alone, 15 g/ha) | % visual injury, Obs ([8]; MATCH, applied alone, 10 g/ha) | % visual injury, Obs ([8]; MATCH, applied alone, 15 g/ha) | pest or weed control at 10 g/ha ([8]; Matricaria chamomilla, post-emergence, MATCH, Compound A 10 g/ha, read-out: % visual injury Obs) | pest or weed control at 15 g/ha ([8]; Matricaria chamomilla, post-emergence, MATCH, Compound A 15 g/ha, read-out: % visual injury Obs)
100% and 90%: SINAR Obs (% visual injury) ([6]; Compound A 10 g/ha)
65%: pest or weed control at […] ([1]; Veronica hederifolia, post-emergence, Compound A 7.5 g/ha, read-out: % visual injury Obs) | pest or weed control at […] ([11]; Stellaria media, post-emergence, STEME, Compound A 7.5 g/ha, read-out: % visual injury Obs) | KCHSC % visual injury Obs ([14]; Compound A 10 g/ha (Table 42)) | KCHSC % visual injury Obs ([14]; Compound A 10 g/ha (Table 43)) | KCHSC % visual injury Obs ([14]; Compound A 10 g/ha (Table 44))
80%: visual injury, Obs ([1]; Compound A 15 g/ha alone) | % visual injury Obs ([1]; alone, 15 g/ha) | % visual injury, Obs ([1]; 15 g/ha) | pest or weed control at 15 g/ha ([1]; Veronica hederifolia, post-emergence, Compound A 15 g/ha, read-out: % visual injury Obs) | % visual injury, Obs ([13]; CHEAL, applied alone, 10 g/ha) | pest or weed control at 15 g/ha ([14]; Bassia scoparia, post-emergence, KCHSC, Compound A 15 g/ha, read-out: % visual injury Obs) | visual injury, Obs ([14]; KCHSC, Compound A 15 g/ha alone) | % visual injury Obs ([14]; KCHSC, alone, 15 g/ha) | % visual injury, Obs ([14]; KCHSC, applied alone, 15 g/ha)
58%: ECHCG Obs (% visual injury) ([12]; without safener) | % visual injury, Obs ([12]; ECHCG)
68% and 55% and 70%: % visual injury (Obs) ([14]; KCHSC, alone 10 g/ha)
65% and 70% and 88%: % visual injury, Obs ([14]; KCHSC, Compound A 10 g/ha)
100%: SINAR % visual injury Obs ([6]; Compound A 10 g/ha (Table 42)) | SINAR % visual injury Obs ([6]; Compound A 10 g/ha (Table 43)) | SINAR % visual injury Obs ([6]; Compound A 10 g/ha (Table 44)) | pest or weed control at 15 g/ha ([6]; Mutarda arvensis, post-emergence, SINAR, Compound A 15 g/ha, read-out: % visual injury Obs) | visual injury, Obs ([6]; SINAR, Compound A 15 g/ha alone) | % visual injury Obs ([6]; SINAR, alone, 15 g/ha) | % visual injury, Obs ([6]; SINAR, applied alone, 15 g/ha) | visual injury, Obs ([11]; STEME, Compound A 15 g/ha alone) | % visual injury Obs ([11]; STEME, 15 g/ha) | % visual injury, Obs ([11]; STEME, applied alone, 15 g/ha) | pest or weed control at 15 g/ha ([11]; Stellaria media, post-emergence, STEME, Compound A 15 g/ha, read-out: % visual injury Obs)
15%: VIOTR Obs (% visual injury) [7, 16] | % visual injury, Obs ([7]; VIOTR, Compound A 10 g/ha) | pest or weed control at […] ([8]; Matricaria chamomilla, post-emergence, MATCH, Compound A 7.5 g/ha, read-out: % visual injury Obs)
50%: visual injury, Obs ([7]; VIOTR, Compound A 15 g/ha alone) | % visual injury Obs ([7]; VIOTR, alone, 15 g/ha) | % visual injury, Obs ([7]; VIOTR, applied alone, 15 g/ha) | pest or weed control at 15 g/ha [7, 17]
78%: ECHCG Obs (% visual injury) [12]
65% and 55%: KCHSC Obs (% visual injury) ([14]; Compound A 10 g/ha)
75%: % visual injury Obs ([1]; Compound A 10 g/ha) | visual injury, Obs ([1]; Compound A 10 g/ha alone) | % visual injury Obs ([1]; alone, 10 g/ha) | % visual injury, Obs ([1]; 10 g/ha) | pest or weed control at 10 g/ha ([1]; Veronica hederifolia, post-emergence, Compound A 10 g/ha, read-out: % visual injury Obs) | pest or weed control at 10 g/ha ([14]; Bassia scoparia, post-emergence, KCHSC, Compound A 10 g/ha, read-out: % visual injury Obs) | % visual injury Obs ([14]; KCHSC, Compound A 10 g/ha) | visual injury, Obs ([14]; KCHSC, Compound A 10 g/ha alone) | % visual injury Obs ([14]; KCHSC, alone 10 g/ha)
13%: MATCH % visual injury Obs ([8]; Compound A 10 g/ha (Table 42)) | MATCH % visual injury Obs ([8]; Compound A 10 g/ha (Table 43)) | MATCH % visual injury Obs ([8]; Compound A 10 g/ha (Table 44))
30%: % visual injury Obs ([7]; VIOTR, Compound A 10 g/ha) | visual injury, Obs ([7]; VIOTR, Compound A 10 g/ha alone) | % visual injury Obs ([7]; VIOTR, alone, 10 g/ha) | % visual injury, Obs ([7]; VIOTR, applied alone, 10 g/ha) | pest or weed control at 10 g/ha [7, 17] | % visual injury, Obs ([8]; MATCH, Compound A 10 g/ha)
